# Reference: patent publication US9902681B2, “N-3 immunoresolvents: structures and actions” (THE BRIGHAM AND WOMEN'S HOSPITAL, INC., priority 2013, dated 2018)
# Legend:
# neutrophil recruitment = test: Zymosan peritonitis, neutrophil recruitment into the peritoneum; design: species or system mouse; conditions: administered in vivo (as mixtures, FIG. 5); result in words
# Method: FIG. 5. n-3 DPA immunoresolvents display potent anti-inflammatory actions in vivo. The indicated n-3 DPA-derived product mixtures were administered by intravenous injection 10 min prior to the intraperitoneal administration of zymosan (0.1 mg, 500 μl PBS) to 6-8-week-old male FvB mice. At 4 h, peritoneal exudates were collected and the (a) number of infiltrated neutrophils was assessed by light microscopy and flow cytometry. Exudate levels for the pro-inflammatory mediators (b) IL6 and (c) MCP-1 were determined by cytokine array. The ratio of RvD1n-3 DPA to RvD2n-3 DPA was ˜3:1 (A), the ratio of MaR1n-3 DPA to MaR2n-3 DPA was ˜4:1 (B); the ratio of RvD5n-3 DPA to PD1n-3 DPA was ˜9:1 (C). Results are mean±SEM. n=4 mice per group (*P<0.05; vs. vehicle group). Results are mean±SEM. n=4. *P<0.05, **P<0.01 vs. zymosan mice.
# It was then determined whether these novel structures carried bioactivity.
# Zymosan (0.1 mg) was injected intraperitoneally (i.p.) in 1 ml of sterile saline. Exudates were collected at 0, 4, 12 and 24 h post zymosan. Leukocyte numbers and differential counts in the peritoneal exudates were determined as in^16. In designated experiments, mice were administered intravenously (i.v): Vehicle (saline containing 0.1% EtOH), or the indicated mixture of n-3 DPA-derived products at 100 ng/mouse 5 min prior to i.p. zymosan administration (0.1 mg). After 4 h the exudates were collected and the number of extravasated neutrophils determined using Turks solution and flow cytometry as above.
# [1] = tested on: infiltrated leukocytes into the lungs / lung tissue damage; test: Murine hind limb ischemia reperfusion, second organ (lung) injury: histology and lung MPO; format: in vivo, mouse; conditions: i.v. 10 min prior to reperfusion; RvD1 500 ng (FIG. 1) or 0.5 ng (Methods); result in words
# Method: (a) Structures of DHA and n-3 DPA. (b) Ischemia was induced by applying tourniquets to the hind limb of 6-8-week-old male FvB mice. After 1 h, tourniquets were removed and reperfusion ensued for 3 h. 10 min prior to reperfusion, vehicle (saline containing 0.1% EtOH), RvD1 (500 ng) or a mixture of n-3 DPA-derived products (see Methods for details) were administered intravenously. At the end of reperfusion, lungs were collected; (c) tissue histology by H&E staining (×200) and (d) MPO levels were assessed. (e) Blood was collected, incubated with rat anti-mouse Ly6G and rat anti-mouse CD41 antibodies and neutrophil leukocyte aggregates were assessed by flow cytometry. (f) Plasma prostanoid and (g) leukotriene levels were assessed by lipid mediator metabololipidomics. Results are mean±SEM. n=4 mice per group. (*P<0.05; vs. vehicle group). Results c are representative n=4. Results d-e are mean±SEM. n=4. *P<0.05, **P<0.01 vs. vehicle mice. […]
# Mice were anesthetized by intraperitoneal injection of a mixture of […]. […] The frozen lungs were homogenized from individual mice, centrifuged and the tissue myeloperoxidase (MPO) levels were determined using a mouse MPO ELISA (R&D Systems.).
# [2] = tested on: human neutrophils adhering to TNF-α activated endothelial cells (HUVEC); test: Human neutrophil-endothelial cell adhesion; format: cell-based; conditions: 1 nM, 15 min, 37° C.; HUVEC stimulated with TNF-α 10 ng/ml, 4 h; vs vehicle
# Method: (§1) FIG. 7. Reduction in human neutrophil chemotaxis, neutrophil-endothelia cell adhesion and stimulation of macrophage phagocytosis by n-3 DPA-derived immunoresolvents. (a) Left panel: micrographs depict PKH26-labeled neutrophils adherent to WGA-Alexafluor® 488-labeled HUVEC stimulated with TNF-α (10 ng/ml, 4 h, 37° C., 0.1% FCS) with or without n-3 DPA resolvins (1 nM, 15 min, 37° C., pH7.45; ×40 magnification). Right panel: Fluorescently labeled human neutrophils were incubated with vehicle (0.1% EtOH in PBS) or n-3 DPA products. These were then added to TNF-α-stimulated HUVEC and incubated for 30 min (37° C.), non-adherent cells were washed and extent of neutrophil adhesion assessed using a SpectraMax M3 Plate reader. (b) Neutrophils were incubated with vehicle (0.1% EtOH in PBS) or n-3 DPA products (1 nM, 15 min, 37° C., pH7.45) prior to loading on ChemoTx chambers and assessing chemotaxis towards IL-8 (100 ng/ml, 90 min, 37° C., pH7.45). […] After 60 min (37° C., pH7.45), the incubation was stopped, extracellular fluorescence quenched using trypan blue and phagocytosis assessed using a SpectraMax M3 Plate reader. […]
# HUVEC were purchased from Lonza and cultured to passage 4. […] The plates were then washed with DPBS to remove non-adherent cells and the number of adherent neutrophils assessed using a Spectra Max M3 microplate reader.
# human neutrophils = test: Neutrophil chemotaxis towards IL-8 (ChemoTx); format: cell-based; conditions: 1 nM, 15 min, 37° C.; IL-8 100 ng/ml, 90 min
# Method: as §1, with “reader.” for “reader. (b) Neutrophils were incubated with vehicle (0.1% EtOH in PBS) or n-3 DPA products (1 nM, 15 min, 37° C., pH7.45) prior to loading on ChemoTx chambers and assessing chemotaxis towards IL-8 (100 ng/ml, 90 min, 37° C., pH7.45).”
# Peripheral blood neutrophils were obtained from healthy volunteers as in^17. […] 2.5×10^4 cells were then added to the upper chamber of the ChemoTx System (3 μm pore size filter) and chemotaxis towards IL8 (100 ng/ml) was assessed (90 min, 37° C., 5% CO2). The number of cells migrated into the bottom chamber was determined using Alama Blue following manufacturer's instructions on a Spectra Max M3 microplate reader (Molecular Devices Inc., Sunnyvale, Calif.).
# [3] = tested on: human monocyte-derived macrophages; test: Macrophage phagocytosis of fluorescently labeled zymosan; format: cell-based; conditions: 1 nM, 15 min, 37° C.; then labeled zymosan 60 min
# Method: as §1
# Macrophages were prepared and phagocytosis was assessed as in^16. […] Phagocytosis was assessed using an M3 SpectraMax plate reader.
Compound,neutrophil infiltration in murine peritonitis (neutrophil recruitment),further results
"CC/C=C\C/C=C\CC(O)C=CC=CC=CC(O)CCCCCC(=O)O (stereo not shown) [MaR1n-3 DPA, 7,14-dihydroxy-8,10,12,16Z,19Z-docosapentaenoic acid]",reduced neutrophil infiltration,
"CC/C=C\C/C=C\CC(O)C(O)C=CC=C/C=C\CCCCCC(=O)O (stereo not shown) [MaR2n-3 DPA, 13,14-dihydroxy-7Z,9,11,16Z,19Z-docosapentaenoic acid]",reduced neutrophil infiltration,
"CC/C=C\CC(O)C=CC=CC=CC(O)C/C=C\CCCCCC(=O)O (stereo not shown) [PD1n-3 DPA, 10,17-dihydroxy-7Z,11,13,15,19Z-docosapentaenoic acid]",reduced neutrophil infiltration,
"CC/C=C\C[C@H](O)/C=C/C=C\C=C\C=C\[C@@H](O)[C@@H](O)C/C=C\CCC(=O)O [RvD1, 7S,8R,17S-trihydroxy-4Z,9E,11E,13Z,15E,19Z-docosahexaenoic acid]",,"protection from secondary organ injury (lung tissue damage, infiltrated leukocytes) [1]: protection"
"CC/C=C\CC(O)/C=C/C=CC=CC=CC(O)C(O)CCCCCC(=O)O (stereo not shown) [RvD1n-3 DPA, 7,8,17-trihydroxy-9,11,13,15E,19Z-docosapentaenoic acid]",reduced neutrophil infiltration,
"CC/C=C\C[C@H](O)[C@H](O)/C=C/C=C/C=C\C=C\[C@@H](O)C/C=C\CCC(=O)O [RvD2, 7S,16R,17S-trihydroxy-4Z,8E,10Z,12E,14E,19Z-docosahexaenoic acid]",,reduction in neutrophil adhesion to TNF-α activated endothelial cells [2]: ~30%; reduction in neutrophil chemotaxis towards an IL-8 gradient (human neutrophils): ~42%; increase in macrophage phagocytosis (uptake) of zymosan [3]: ~50%
"CC/C=C\CC(O)C(O)/C=C/C=CC=CC=CC(O)CCCCCC(=O)O (stereo not shown) [RvD2n-3 DPA, 7,16,17-trihydroxy-8,10,12,14E, 19Z-docosapentaenoic acid]",reduced neutrophil infiltration,
"CC/C=C\C[C@H](O)/C=C/C=C\C/C=C\C=C\[C@@H](O)CCCCCC(=O)O [RvD5n-3 DPA, 7,17-trihydroxy-8E,10,13,15E,19Z-docosapentaenoic acid]",reduced neutrophil infiltration,
